The text below walks through data of patent US10986838B2, “Herbicides” (SYNGENTA PARTICIPATIONS AG, priority 2016, dated 2021).

The test system of the first assay is Alopecurus myosuroides (ALOMY). Description: Pre-emergence herbicidal activity (B1). It is filed as in vivo. The following applies: Test 1a, 1000 g/ha, evaluated after 13 days, 5=total damage to plant, 0=no damage to plant. As to the method: (§1) B1 Pre-Emergence Herbicidal Activity Seeds of a variety of test species were sown in standard soil in pots: Triticum aestivium (TRZAW), Avena fatua (AVEFA), Alopecurus myosuroides (ALOMY), Echinochloa crus-galli (ECHCG), Lolium perenne (LOLPE), Zea Mays (ZEAMX), Abutilon theophrasti (ABUTH), Amaranthus retroflexus (AMARE) and Setaria faberi (SETFA). After cultivation for one day (pre-emergence) under controlled conditions in a glasshouse (at 24/16° C., day/night; 14 hours light; 65% humidity), the plants were sprayed with an aqueous spray solution derived from the formulation of the technical active ingredient in acetone/water (50:50) solution containing 0.5% Tween 20 (polyoxyethelyene sorbitan monolaurate, CAS RN 9005-64-5). The test plants were then grown in a glasshouse under controlled conditions (at 24/16° C., day/night; 14 hours light; 65% humidity) and watered twice daily. After 13 days, the test was evaluated (5=total damage to plant; 0=no damage to plant). Tables B1a and B1b Control of Weed Species by Compound of Formula (I) after Pre-Emergence Application
The molecule `Fc1cncc(-c2ccc(NCC3CCCCC3)c(C(F)(F)F)n2)c1` [Compound A52] had an ALOMY damage score of 0.

The molecule `COc1nc(-c2cncc(F)c2)ccc1N` [Compound A43] returned an ALOMY damage score of 0.

Regarding `Fc1cncc(-c2ccc(NC3CCCCC3)c(C(F)(F)F)n2)c1` [Compound A45], the ALOMY damage score worked out at 0.

A further assay relates to Avena fatua (AVEFA). Description: Pre-emergence herbicidal activity (B1). It is filed as in vivo. The following applies: Test 1a, 1000 g/ha, evaluated after 13 days, 5=total damage to plant, 0=no damage to plant. The method, then: as §1
Molecule `Fc1cncc(-c2ccc(NCC3CCCCC3)c(C(F)(F)F)n2)c1` [Compound A52] came in with an AVEFA damage score of 1.

`COc1nc(-c2cncc(F)c2)ccc1N` [Compound A43] gave an AVEFA damage score of 0.

In turn, `Fc1cncc(-c2ccc(NC3CCCCC3)c(C(F)(F)F)n2)c1` [Compound A45] came in with an AVEFA damage score of 1.

Another assay deals with Echinochloa crus-galli (ECHCG). Description: Pre-emergence herbicidal activity (B1). Format: in vivo. As to conditions: Test 1a, 1000 g/ha, evaluated after 13 days, 5=total damage to plant, 0=no damage to plant. The method, then:
as §1
Turning to `Fc1cncc(-c2ccc(NCC3CCCCC3)c(C(F)(F)F)n2)c1` [Compound A52], the ECHCG damage score is 3.

Regarding `COc1nc(-c2cncc(F)c2)ccc1N` [Compound A43], the ECHCG damage score was 0.

On to `Fc1cncc(-c2ccc(NC3CCCCC3)c(C(F)(F)F)n2)c1` [Compound A45], for which the ECHCG damage score turned out to be 3.

The test system of another assay is Lolium perenne (LOLPE). Description: Pre-emergence herbicidal activity (B1). The following applies: Test 1a, 1000 g/ha, evaluated after 13 days, 5=total damage to plant, 0=no damage to plant. Format: in vivo. As to the method: as §1
Molecule `Fc1cncc(-c2ccc(NCC3CCCCC3)c(C(F)(F)F)n2)c1` [Compound A52] returned an LOLPE damage score of 1.

As for `COc1nc(-c2cncc(F)c2)ccc1N` [Compound A43], the LOLPE damage score is reported as 1.

Molecule `Fc1cncc(-c2ccc(NC3CCCCC3)c(C(F)(F)F)n2)c1` [Compound A45] registered an LOLPE damage score of 0.

Another assay relates to Setaria faberi (SETFA). Description: Pre-emergence herbicidal activity (B1). It is filed as in vivo. The following applies: Test 1a, 1000 g/ha, evaluated after 13 days, 5=total damage to plant, 0=no damage to plant. The method, then:
as §1
Molecule `Fc1cncc(-c2ccc(NCC3CCCCC3)c(C(F)(F)F)n2)c1` [Compound A52] registered an SETFA damage score of 5.

The molecule `COc1nc(-c2cncc(F)c2)ccc1N` [Compound A43] had an SETFA damage score of 1.

`Fc1cncc(-c2ccc(NC3CCCCC3)c(C(F)(F)F)n2)c1` [Compound A45] registered an SETFA damage score of 4.

The test system of another assay is Triticum aestivium (TRZAW). Description: Pre-emergence herbicidal activity (B1). Format: in vivo. As to conditions: Test 1a, 1000 g/ha, evaluated after 13 days, 5=total damage to plant, 0=no damage to plant. The method, then: as §1
`Fc1cncc(-c2ccc(NCC3CCCCC3)c(C(F)(F)F)n2)c1` [Compound A52] had a TRAZW damage score of 0.

Take `COc1nc(-c2cncc(F)c2)ccc1N` [Compound A43]: the TRAZW damage score stood at 0.

Another assay relates to Alopecurus myosuroides (ALOMY). Description: Post-emergence herbicidal activity (B2). The following applies: Test B2a, 1000 g/ha, evaluated after 13 days, 5=total damage to plant, 0=no damage to plant. It is filed as in vivo. The method, then: (§2) B2 Post-Emergence Herbicidal Activity Seeds of a variety of test species were sown in standard soil in pots: Triticum aestivium (TRZAW), Avena fatua (AVEFA), Alopecurus myosuroides (ALOMY), Echinochloa crus-galli (ECHCG), Lolium perenne (LOLPE), Zea Mays (ZEAMX), Abutilon theophrasti (ABUTH), Amaranthus retroflexus (AMARE) and Setaria faberi (SETFA). After 8 days cultivation (post-emergence) under controlled conditions in a glasshouse (at 24/16° C., day/night; 14 hours light; 65% humidity), the plants were sprayed with an aqueous spray solution derived from the formulation of the technical active ingredient in acetone/water (50:50) solution containing 0.5% Tween 20 (polyoxyethelyene sorbitan monolaurate, CAS RN 9005-64-5). The test plants were then grown in a glasshouse under controlled conditions (at 24/16° C., day/night; 14 hours light; 65% humidity) and watered twice daily. After 13 days, the test was evaluated (5=total damage to plant; 0=no damage to plant). Tables B2a and B2b Control of Weed Species by Compound of Formula (I) after Post-Emergence Application
As for `Fc1cncc(-c2ccc(NCC3CCCCC3)c(C(F)(F)F)n2)c1` [Compound A52], the ALOMY damage score was 0.

As to `COc1nc(-c2cncc(F)c2)ccc1N` [Compound A43], the ALOMY damage score is recorded as 0.

In turn, `Fc1cncc(-c2ccc(NC3CCCCC3)c(C(F)(F)F)n2)c1` [Compound A45] gave an ALOMY damage score of 0.

Another assay concerns Avena fatua (AVEFA). Description: Post-emergence herbicidal activity (B2). Format: in vivo. As to conditions: Test B2a, 1000 g/ha, evaluated after 13 days, 5=total damage to plant, 0=no damage to plant. The method, then:
as §2
`Fc1cncc(-c2ccc(NCC3CCCCC3)c(C(F)(F)F)n2)c1` [Compound A52] registered an AVEFA damage score of 3.

As to `COc1nc(-c2cncc(F)c2)ccc1N` [Compound A43], the AVEFA damage score amounted to 1.

On to `Fc1cncc(-c2ccc(NC3CCCCC3)c(C(F)(F)F)n2)c1` [Compound A45], for which the AVEFA damage score stood at 2.

For another assay, the system named is Echinochloa crus-galli (ECHCG). Description: Post-emergence herbicidal activity (B2). It is filed as in vivo. The following applies: Test B2a, 1000 g/ha, evaluated after 13 days, 5=total damage to plant, 0=no damage to plant. The method, then: as §2
On to `Fc1cncc(-c2ccc(NCC3CCCCC3)c(C(F)(F)F)n2)c1` [Compound A52], for which the ECHCG damage score amounted to 3.

`COc1nc(-c2cncc(F)c2)ccc1N` [Compound A43] came in with an ECHCG damage score of 1.

Take `Fc1cncc(-c2ccc(NC3CCCCC3)c(C(F)(F)F)n2)c1` [Compound A45]: the ECHCG damage score was 2.

The next assay deals with Lolium perenne (LOLPE). Description: Post-emergence herbicidal activity (B2). It is filed as in vivo. As to conditions: Test B2a, 1000 g/ha, evaluated after 13 days, 5=total damage to plant, 0=no damage to plant. As to the method: as §2
`Fc1cncc(-c2ccc(NCC3CCCCC3)c(C(F)(F)F)n2)c1` [Compound A52] yielded an LOLPE damage score of 3.

On to `COc1nc(-c2cncc(F)c2)ccc1N` [Compound A43], for which the LOLPE damage score is reported as 1.

The molecule `Fc1cncc(-c2ccc(NC3CCCCC3)c(C(F)(F)F)n2)c1` [Compound A45] showed an LOLPE damage score of 1.

The subject of another assay is Setaria faberi (SETFA). Description: Post-emergence herbicidal activity (B2). The following applies: Test B2a, 1000 g/ha, evaluated after 13 days, 5=total damage to plant, 0=no damage to plant. Format: in vivo. The method, then:
as §2
Turning to `Fc1cncc(-c2ccc(NCC3CCCCC3)c(C(F)(F)F)n2)c1` [Compound A52], the SETFA damage score was 5.

On to `COc1nc(-c2cncc(F)c2)ccc1N` [Compound A43], for which the SETFA damage score is on record as 2.

Take `Fc1cncc(-c2ccc(NC3CCCCC3)c(C(F)(F)F)n2)c1` [Compound A45]: the SETFA damage score was found to be 4.

The subject of another assay is Triticum aestivium (TRZAW). Description: Post-emergence herbicidal activity (B2). The following applies: Test B2a, 1000 g/ha, evaluated after 13 days, 5=total damage to plant, 0=no damage to plant. Format: in vivo. The method, then: as §2
`Fc1cncc(-c2ccc(NCC3CCCCC3)c(C(F)(F)F)n2)c1` [Compound A52]: the TRAZW damage score came to 0.

`COc1nc(-c2cncc(F)c2)ccc1N` [Compound A43] showed a TRAZW damage score of 0.

For the molecule `Fc1cncc(-c2ccc(NC3CCCCC3)c(C(F)(F)F)n2)c1` [Compound A45], the TRAZW damage score was 0.
